The subject of data set [1] is A2058, human malignant melanoma cells. Kind of data set: MTT cell proliferation assay in A2058 cells. The following applies: A2058, 72 h, three days exposure. It is filed as cell-based. As to the method:
(§1) MTT [3-(4,5-dimethylthiazol-2-yl)-2,5-diphenyltetrazolium bromide] incorporation based cell proliferation assay was performed using standard procedure with some modifications (38). The cytotoxic efficacy of the test compounds were evaluated in human malignant melanoma A2058 cells by MTT cell proliferation assay kit (Roche Applied Sciences, Germany). The assay was carried out according to the instruction provided by the vendor. Briefly, equal numbers of cells was plated in 96-well flat-bottomed plates in 100 μl of medium and were exposed to either DTIC or its derivative compounds at various concentrations up to 150 μg/ml for a period of three days. Vehicle control culture wells received only a maximum of 0.5% DMSO. Thereafter, 0.5 mg/ml of MTT reagent was added to each well and the microplate was incubated further for 4 h at 37° C. in presence of 5% CO2. Finally, the cells were solubilized by adding solubilizing solution and allowed to incubate at 37° C. overnight. After complete solubilization of the formazan crystals the absorbance was read at 540 nm in a microplate reader (BioRad, USA). The results (mean OD±SD) obtained from quadruplicate wells were used in calculation to determine the inhibition of cell proliferation (50% inhibitory concentration, IC50) of the test compounds.

The test system of data set [2] is normal human skin epithelial HS.531.sk cells. As to the kind of experiment: LDH leakage assay on normal skin cells (tumor selectivity). It is filed as cell-based. The following applies: 120 μg/ml. The protocol:
From the data obtained from the MTT assay (Table J), compound 1, compound 6 and compound 13 have been selected and their cytotoxicity potential has been further validated in LDH leakage assay. […] Cytotoxicity potential of DTIC and its derivative compounds were evaluated by measuring the leaked lactate dehydrogenase (LDH) into the culture supernatant (LDH Cytotoxicity Detection Roche Applied Sciences, Germany). The leaked LDH is directly proportional to the cell damage done by the cytotoxic compounds. In brief, cells were treated with test compounds at various concentrations and incubated for 48 h. Vehicle control culture wells received only a maximum of 0.5% DMSO. The cell free culture supernatants were mixed with catalyst and dye solution and allowed to incubate for 15 min at room temperature. Finally, the reaction was stopped and the optical density was measured at 492 nm in a microplate reader (BioRad, USA). The results (mean OD±SD) obtained from quadruplicate wells were used in calculation to determine the cytotoxicity potential (50% of inhibitory concentration, IC50) of the test compounds. A plot of loss of cell viability as indicated by the leakage of LDH versus drug concentration is depicted in FIG. 1.
Next, to check whether the DTIC derivative compounds can selectively kill the melanoma cells without or minimally affecting the normal cells, we assessed the effect of the test compounds on normal human skin epithelial HS.531.sk cells. […] Whereas, 120 μg/ml of DTIC, compound 1, […] caused 5.8%, 4.2%, 2.4%, and 2.4% reduction in normal cell viability, respectively.
Background: LDH in the medium is a marker of cell lysis.

Data set [3] deals with PARP cleavage in A2058 human melanoma cells. As to the kind of experiment: PARP cleavage Western immunoblot assay. The following applies: 100 μg/ml, versus DTIC at the same concentration. The data set is classed as cell-based. The source says:
Proteolytic cleavage of PARP by caspases is regarded as a hallmark of apoptosis. Caspase-3 cleaves the 113-kDa PARP to generate 89- and 24-kDa polypeptides (39). Next, with an intention to evaluate the comparative apoptotic potential of DTIC and test products compound 1, compound 6 and compound 13, PARP cleavage assay has been performed on A2058 cells. PARP cleavage was estimated by using Western immunoblot assay as described earlier (40). FIG. 3 illustrates comparative efficacy of PARP cleavage by the test compounds at a fixed dose of 100 μg/ml. […] No. 3 treated A2058 cells is 56.6% more than in DTIC treated cells at the same concentration.
For orientation: In western blotting, separated proteins are transferred to a membrane and probed.

Data set [4] deals with MIA-PaCa2 human pancreas tumor cells. As to the kind of experiment: MTT cell proliferation assay in MIA-PaCa2 cells. It is filed as cell-based. The following applies: MIA PaCa-2, read-out: 50% of inhibitory concentration, IC50 MIA-PaCa2. The protocol:
as §1
(§2) Anti-tumor growth potential of Compound 1 and Compound 6 were evaluated in MCF-7 human breast tumor cells, MIA-PaCa2 human pancreas tumor cells and DU145 human prostate tumor cells by using MTT based cell proliferation studies as described earlier (example 19). The results (mean OD±SD) obtained from quadruplicate wells were used in calculation to determine the inhibition of cell proliferation (50% of inhibitory concentration, IC50) of the test compounds (Table 4).
A general note: Formazan colour is commonly taken as a measure of viable cells.

The test system of data set [5] is DU145 human prostate tumor cells. Kind of data set: MTT cell proliferation assay in DU145 cells. Particulars: DU-145, read-out: 50% of inhibitory concentration, IC50 DU145. The data set is classed as cell-based. As to the method: as §1, §2
Data set [6] deals with MCF-7 human breast tumor cells. As to the kind of experiment: MTT cell proliferation assay in MCF-7 cells. It is filed as cell-based. The following applies: MCF7, read-out: 50% of inhibitory concentration, IC50 MCF-7. The protocol: as §1, §2

Each structure is given as a SMILES string. Converted amounts (≈) assume the structure as drawn.

As usually defined, the melting point is the temperature of the solid-liquid transition.

The compound `CN(C)/N=N/c1cc([N+](=O)[O-])sc1C(=O)O` [Compound 7, 3-[(dimethylamino)diazenyl]-5-nitrothiophene-2-carboxylic acid] yielded a melting point of 184 to 186 °C.
The compound `Cn1nnc2sc(N)cc2c1=O` [Compound 17, 6-amino-3-methylthiopheno[2,3-d]1,2,3-triazin-4-one] displayed a melting point of 190 to 194 °C. In data set [1], the IC50 was determined as 147 µg/mL (≈ 805 µM).
`CN(C)/N=N/c1cc(-c2ccccc2)sc1C(N)=O` [Compound 5, 3-[(dimethylamino)diazenyl]-5-phenylthiophene-2-carboxamide]: the melting point lay within 220 to 222 °C.
As to `CN(C)/N=N/c1csc(C(N)=O)c1` [Compound 12], the melting point lay within 128 to 130 °C. For the same compound, in data set [1], the IC50 is 165 µg/mL (≈ 832 µM).
`CN(C)/N=N/c1c(Br)csc1C(N)=O` [Compound 2, 3-[(dimethylamino)diazenyl]-4-bromothiophene-2-carboxamide] came in with a melting point of 194 to 196 °C. Further, the IC50 in data set [1] was found to be 113 µg/mL (≈ 409 µM).
In the case of `Cn1nnc2cc(-c3ccccc3)sc2c1=O` [Compound 18, 3-methyl-6-phenylthiopheno[3,2-d]1,2,3-triazin-4-one], the melting point lay in the range of 220 to 222 °C.
As to `CN(C)/N=N/c1ccsc1C(=O)[O-].[K+]`, the melting point lay within 274 to 280 °C.
As for `COc1c(C(N)=O)sc(C(N)=O)c1/N=N/N(C)C` [Compound 4, 4-[(dimethylamino)diazenyl]-3-methoxythiophene-2,5-dicarboxamide], the melting point was 226 to 228 °C. Besides, the “reduction in normal cell viability” value in data set [2] came to 2.4%.
`CN(C)/N=N/c1ccsc1C(=O)NCCO` [Compound 9, {3-[(dimethylamino)diazenyl] (2-thienyl)}-N-(2-hydroxyethyl)-carboxamide] showed a melting point of 118 to 122 °C. In data set [1], this compound displayed an IC50 of 214 µg/mL (≈ 884 µM).
The like results for `CNC(=O)c1sccc1/N=N/N(C)C` [Compound 10, {3-[(dimethylamino)diazenyl](2-thienyl)}-N-methylcarboxamide] were, in that order, 98 to 102 °C and 179 µg/mL (≈ 842 µM).
On to `CN(C)/N=N/c1cc([N+](=O)[O-])sc1C(N)=O` [Compound 3, 3-[(dimethylamino)diazenyl]-5-nitrothiophene-2-carboxamide], for which, in data set [2], the “reduction in normal cell viability” value is reported as 2.4%. The “expression of cleaved subunit of PARP at 89 kDa, more than in DTIC treated cells” value in data set [3] turned out to be 56.6%.
In the case of `CN(C)/N=N/c1ccsc1C(=O)NCCN` [Compound 11, N-(2-aminoethyl){3-[(dimethylamino)diazenyl](2-thienyl)}-carboxamide], the IC50 in data set [1] was 164 µg/mL (≈ 681 µM).
Compound `CN(C)/N=N/c1ccsc1C(N)=O` [Compound 1, 3-[(dimethylamino)diazenyl]thiophene-2-carboxamide] gave a melting point of 168 to 170 °C. For the same compound, the IC50 in data set [4] turned out to be 168 µg/mL (≈ 850 µM). The same compound had an IC50 in data set [1] of 78.7 µg/mL (≈ 397 µM). The “reduction in normal cell viability” value in data set [2] turned out to be 4.2%. In data set [5], the IC50 is 153 µg/mL (≈ 773 µM). Moreover, the IC50 in data set [6] came out at 130 µg/mL (≈ 657 µM).
`CN(C)/N=N/c1cc(-c2ccccc2)sc1C(=O)O` [Compound 8, 3-[(dimethylamino)diazenyl]-5-phenylthiophene-2-carboxylic acid]: the melting point lay within 162 to 166 °C.
In the case of `CN(C)/N=N/c1cscc1C(N)=O` [Compound 13, 4-[(dimethylamino)diazenyl]thiophene-3-carboxamide], the melting point was in the range of 168 to 172 °C. Further, in data set [1], the IC50 amounted to 48.8 µg/mL (≈ 246 µM).

Values taken from patent publication US8258119B2, “Anti-cancer drugs and uses relating thereto for metastatic malignant melanoma and other cancers” (Kasina Laila Innova Pharmaceuticals, priority 2008, dated 2012).
